These results are taken from patent US11000511B2, “Chemical compounds as antibiotics” (priority 2017, dated 2021).

The structures appear in SMILES notation. Where only a bound is given, the exact number is not on record here.

Test [1] deals with T1, purified LasB protein from P. aeruginosa (Pseudomonas aeruginosa, UniProt P14756).
T1 construct: purchased Merck or Charles River Laboratories
Description: Fluorometric assay to determine Ki (Assay 1). The class given is biochemical. The following applies: Ki (μM) Assay 1, purified LasB, substrate Abz-Ala-Gly-Leu-Ala-p-Nitro-Benzyl-Amide 250 μM, Ki calculated from IC50; inhibitor 0.006 to 200 μM. In a few lines: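 Purified LasB (10 to 140 ng/ml) with 250 μM Abz-Ala-Gly-Leu-Ala-p-nitrobenzylamide in 50 mM Tris-HCl pH 7.4, 2.5 mM CaCl2, 0.01% Triton X100; hydrolysis read by fluorescence (Ex 340/Em 415 nm) over 30 min at 37° C. Inhibitor 2-fold series, 0.006–200 μM (Assay 1) or 0.0016–200 μM (Assay 2); IC50 converted to Ki via Ki=IC50/(1+[S]/Km), Km=214 μM.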

In test [2] the target is T2, LasB elastase activity in dialysed supernatant from P. aeruginosa strain PA01 (Pseudomonas aeruginosa, UniProt P14756).
T2 construct: uses as source of enzyme dialysed supernatant from P. aeruginosa; endogenous in cells; host or cells: P. aeruginosa strain PA01 culture supernatant, filtered and dialysed
T2 sequence (P14756 198-498): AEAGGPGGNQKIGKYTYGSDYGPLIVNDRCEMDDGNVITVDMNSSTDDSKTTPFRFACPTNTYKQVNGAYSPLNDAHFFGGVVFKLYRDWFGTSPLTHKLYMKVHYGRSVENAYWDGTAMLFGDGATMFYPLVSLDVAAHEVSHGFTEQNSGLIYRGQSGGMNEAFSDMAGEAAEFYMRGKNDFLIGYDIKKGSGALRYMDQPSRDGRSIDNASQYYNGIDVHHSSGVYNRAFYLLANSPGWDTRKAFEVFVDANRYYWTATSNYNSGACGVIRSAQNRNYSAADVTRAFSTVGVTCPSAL
Description: Elastin Congo Red assay to determine % inhibition (Assay 1). It is filed as biochemical. The settings on record: read-out: Elastin hydrolysis % inhibition @ 50/25 μM inhibitor concentration Assay 1. The gist of the method: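 Enzyme source: PA01 culture supernatant (19 h growth), filtered and dialysed into 50 mM Tris pH 7.4, 2.5 mM CaCl2. Mixed 1:1 with Elastin Congo Red (20 mg/mL) plus 0.01% Triton X-100 and compound (routinely 50 and 25 μM), 24 h at 37 °C shaking. Dye release at OD520 gives % inhibition versus DMSO.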

T1 sequence (P14756 198-498): as above

`CCOc1cccc2sc(CNC(=O)C3(CC(=O)O)Cc4ccccc4C3)nc12` [Example 64, 2-(2-(((4-ethoxybenzo[d]thiazol-2-yl)methyl)carbamoyl)-2,3-dihydro-1H-inden-2-yl)acetic acid]: in test [1], the inhibition constant Ki (in general, the equilibrium dissociation constant of an inhibitor or competing ligand from its target) is 0.3 to 2 µM. For the same compound, in test [2], the inhibition at 50 µM is more than 60%.

As to `Cc1cccc2sc(CNC(=O)C3(CC(=O)O)Cc4ccccc4C3)nc12` [Example 65, 2-(2-(((4-methylbenzo[d]thiazol-2-yl)methyl)carbamoyl)-2,3-dihydro-1H-inden-2-yl)acetic acid], in test [1], the Ki is less than 0.3 µM. Moreover, the inhibition at 50 µM in test [2] was more than 60%.

As for `O=C(O)CC1(C(=O)NCc2nc3c(N4CCOCC4)cccc3s2)Cc2ccccc2C1` [Example 66, 2-(2-(((4-morpholinobenzo[d]thiazol-2-yl)methyl)carbamoyl)-2,3-dihydro-1H-inden-2-yl)acetic acid], the inhibition constant Ki in test [1] was 0.3 to 2 µM. The inhibition at 50 µM in test [2] was more than 60%.

In the case of `CN(C)C1CN(c2ccc3nc(CNC(=O)C4(CC(=O)O)Cc5ccccc5C4)sc3c2)C1` [Example 67, 2-(2-(((6-(3-(dimethylamino)azetidin-1-yl)benzo[d]thiazol-2-yl)methyl)carbamoyl)-2,3-dihydro-1H-inden-2-yl)acetic acid], the Ki in test [1] is 0.3 to 2 µM. The inhibition at 50 µM in test [2] was more than 60%.

Consider `C[N+](C)(C)C1CN(c2ccc3nc(CNC(=O)C4(CC(=O)[O-])Cc5ccccc5C4)sc3c2)C1` [Example 68, 2-[2-[[6-[3-(trimethylammonio)azetidin-1-yl]-1,3-benzothiazol-2-yl]methylcarbamoyl]indan-2-yl]acetate], for which the inhibitory constant (Ki) in test [1] is 0.3 to 2 µM. Besides, the inhibition at 50 µM in test [2] lay in the range of 30 to 60%.

`NCCNc1ccc2nc(CNC(=O)C3(CC(=O)O)Cc4ccccc4C3)sc2c1` [Example 69, 2-[2-[[6-(2-aminoethylamino)-1,3-benzothiazol-2-yl]methylcarbamoyl]indan-2-yl]acetic acid]: in test [1], the inhibitory constant (Ki) was 0.3 to 2 µM. For the same compound, the inhibition at 50 µM in test [2] was more than 60%.

Turning to `NCCC1CN(c2ccc3nc(CNC(=O)C4(CC(=O)O)Cc5ccccc5C4)sc3c2)C1` [Example 70, 2-[2-[[6-[3-(2-aminoethyl)azetidin-1-yl]-1,3-benzothiazol-2-yl]methylcarbamoyl]indan-2-yl]acetic acid], the Ki in test [1] is less than 0.3 µM. Further, in test [2], the inhibition at 50 µM is more than 60%.

Turning to `CN1CC2(C1)CN(c1ccc3nc(CNC(=O)C4(CC(=O)O)Cc5ccccc5C4)sc3c1)C2` [Example 71, 2-[2-[[6-(6-methyl-2,6-diazaspiro[3.3]heptan-2-yl)-1,3-benzothiazol-2-yl]methylcarbamoyl]indan-2-yl]acetic acid], the Ki in test [1] was less than 0.3 µM. Moreover, the inhibition at 50 µM in test [2] was more than 60%.

For the compound `NCCNc1ccc2sc(CNC(=O)C3(CC(=O)O)Cc4ccccc4C3)nc2c1` [Example 72, 2-[2-[[5-(2-aminoethylamino)-1,3-benzothiazol-2-yl]methylcarbamoyl]indan-2-yl]acetic acid], in test [1], the inhibition constant Ki is 0.3 to 2 µM. For the same compound, the inhibition at 50 µM in test [2] is more than 60%.

Take `NC1CN(c2ccc3sc(CNC(=O)C4(CC(=O)O)Cc5ccccc5C4)nc3c2)C1` [Example 73, 2-[2-[[5-(3-aminoazetidin-1-yl)-1,3-benzothiazol-2-yl]methylcarbamoyl]indan-2-yl]acetic acid]: in test [1], the Ki is less than 0.3 µM. Also, in test [2], the inhibition at 50 µM was more than 60%.

As for `CN(C)C1CN(c2ccc3sc(CNC(=O)C4(CC(=O)O)Cc5ccccc5C4)nc3c2)C1` [Example 74, 2-[2-[[5-[3-(dimethylamino)azetidin-1-yl]-1,3-benzothiazol-2-yl]methylcarbamoyl]indan-2-yl]acetic acid], the Ki in test [1] is less than 0.3 µM. The inhibition at 50 µM in test [2] is more than 60%.

For the compound `C[N+](C)(C)C1CN(c2ccc3sc(CNC(=O)C4(CC(=O)[O-])Cc5ccccc5C4)nc3c2)C1` [Example 75, 2-[2-[[5-[3-(trimethylammonio)azetidin-1-yl]-1,3-benzothiazol-2-yl]methylcarbamoyl]indan-2-yl]acetate], the Ki in test [1] is 0.3 to 2 µM. In addition, the inhibition at 50 µM in test [2] is more than 60%.

Regarding `CN(C)CCNc1ccc2sc(CNC(=O)C3(CC(=O)O)Cc4ccccc4C3)nc2c1` [Example 76, 2-[2-[[5-[2-(dimethylamino)ethylamino]-1,3-benzothiazol-2-yl]methylcarbamoyl]indan-2-yl]acetic acid], in test [1], the Ki was 0.3 to 2 µM. In test [2], the inhibition at 50 µM was more than 60%.

With `NCCc1ccc2nc(CNC(=O)C3(CC(=O)O)Cc4ccccc4C3)sc2c1` [Example 80, 2-[2-[[6-(2-aminoethyl)-1,3-benzothiazol-2-yl]methylcarbamoyl]indan-2-yl]acetic acid], in test [1], the inhibition constant (Ki) is 0.3 to 2 µM. The inhibition at 50 µM in test [2] is more than 60%.

Turning to `C[N+](C)(C)CC#Cc1ccc2nc(CNC(=O)C3(CC(=O)[O-])Cc4ccccc4C3)sc2c1` [Example 86, 2-[2-[[6-[3-(trimethylammonio)prop-1-ynyl]-1,3-benzothiazol-2-yl]methylcarbamoyl]indan-2-yl]acetate], the Ki in test [1] was less than 0.3 µM. For the same compound, the inhibition at 50 µM in test [2] was more than 60%.

In the case of `NC/C=C/c1ccc2sc(CNC(=O)C3(CC(=O)O)Cc4ccccc4C3)nc2c1` [Example 87, 2-[2-[[5-[(E)-3-aminoprop-1-enyl]-1,3-benzothiazol-2-yl]methylcarbamoyl]indan-2-yl]acetic acid], in test [1], the inhibition constant (Ki) is 0.3 to 2 µM. In addition, the inhibition at 50 µM in test [2] is more than 60%.

`CN(C)CC#Cc1ccc2sc(CNC(=O)C3(CC(=O)O)Cc4ccccc4C3)nc2c1` [Example 88, 2-[2-[[5-[3-(dimethylamino)prop-1-ynyl]-1,3-benzothiazol-2-yl]methylcarbamoyl]indan-2-yl]acetic acid]: the inhibitory constant (Ki) in test [1] was less than 0.3 µM. In addition, the inhibition at 50 µM in test [2] is more than 60%.

For `CN(C)CCCc1ccc2sc(CNC(=O)C3(CC(=O)O)Cc4ccccc4C3)nc2c1` [Example 89, 2-[2-[[5-[3-(dimethylamino)propyl]-1,3-benzothiazol-2-yl]methylcarbamoyl]indan-2-yl]acetic acid], the Ki in test [1] is 0.3 to 2 µM. Besides, the inhibition at 50 µM in test [2] was more than 60%.

Regarding `C[N+](C)(C)CCCc1ccc2sc(CNC(=O)C3(CC(=O)[O-])Cc4ccccc4C3)nc2c1` [Example 90, 2-[2-[[5-[3-(trimethylammonio)propyl]-1,3-benzothiazol-2-yl]methylcarbamoyl]indan-2-yl]acetate], the Ki in test [1] is 0.3 to 2 µM. Besides, the inhibition at 50 µM in test [2] is more than 60%.

Consider `CN(C)C[C@H]1C[C@H](c2ccc3nc(CNC(=O)C4(CC(=O)O)Cc5ccccc5C4)sc3c2)C1` [Example 91, 2-(2-(((6-((1 r,3r)-3-((dimethylamino)methyl)cyclobutyl)benzo[d]thiazol-2-yl)methyl)carbamoyl)-2,3-dihydro-1H-inden-2-yl)acetic acid], for which the Ki in test [1] is less than 0.3 µM. Besides, in test [2], the inhibition at 50 µM is more than 60%.

Consider `C[N+](C)(C)C[C@H]1C[C@H](c2ccc3nc(CNC(=O)C4(CC(=O)[O-])Cc5ccccc5C4)sc3c2)C1` [Example 92, 2-[2-[[6-[(1r,3r)-3-[(trimethylammonio)methyl]cyclobutyl]-1,3-benzothiazol-2-yl]methylcarbamoyl]indan-2-yl]acetate], for which, in test [1], the Ki was 0.3 to 2 µM. The inhibition at 50 µM in test [2] is more than 60%.

Regarding `CN(C)C[C@H]1C[C@@H](c2ccc3nc(CNC(=O)C4(CC(=O)O)Cc5ccccc5C4)sc3c2)C1` [Example 93, 2-(2-(((6-((1s,3s)-3-((dimethylamino)methyl)cyclobutyl)benzo[d]thiazol-2-yl)methyl)carbamoyl)-2,3-dihydro-1H-inden-2-yl)acetic acid], in test [1], the inhibition constant (Ki) is less than 0.3 µM. Also, the inhibition at 50 µM in test [2] is more than 60%.

Regarding `C[N+](C)(C)C[C@H]1C[C@@H](c2ccc3nc(CNC(=O)C4(CC(=O)[O-])Cc5ccccc5C4)sc3c2)C1` [Example 94, 2-[2-[[6-[(1s,3s)-3-[(trimethylammonio)methyl]cyclobutyl]-1,3-benzothiazol-2-yl]methylcarbamoyl]indan-2-yl]acetate], the Ki in test [1] is less than 0.3 µM. In addition, the inhibition at 50 µM in test [2] is more than 60%.

Consider `CN(C)CCc1ccc2nc(CNC(=O)C3(CC(=O)O)Cc4ccccc4C3)sc2c1` [Example 95, 2-[2-[[6-[2-(dimethylamino)ethyl]-1,3-benzothiazol-2-yl]methylcarbamoyl]indan-2-yl]acetic acid], for which the inhibition constant (Ki) in test [1] was 0.3 to 2 µM. In addition, in test [2], the inhibition at 50 µM fell in the range of 30 to 60%.

For `C[N+](C)(C)CCc1ccc2nc(CNC(=O)C3(CC(=O)[O-])Cc4ccccc4C3)sc2c1` [Example 96, 2-[2-[[6-[2-(trimethylammonio)ethyl]-1,3-benzothiazol-2-yl]methylcarbamoyl]indan-2-yl]acetate], in test [1], the Ki was 0.3 to 2 µM. The inhibition at 50 µM in test [2] lay in the range of 30 to 60%.

Take `NCC1CN(c2ccc3nc(CNC(=O)C4(CC(=O)O)Cc5ccccc5C4)sc3c2)C1` [Example 99, 2-[2-[[6-[3-(aminomethyl)azetidin-1-yl]-1,3-benzothiazol-2-yl]methylcarbamoyl]indan-2-yl]acetic acid]: the Ki in test [1] is less than 0.3 µM. Further, the inhibition at 50 µM in test [2] was more than 60%.

As for `NC1CN(c2ccc3nc(CNC(=O)C4(CC(=O)O)Cc5ccccc5C4)sc3c2)C1` [Example 100, 2-[2-[[6-(3-aminoazetidin-1-yl)-1,3-benzothiazol-2-yl]methylcarbamoyl]indan-2-yl]acetic acid], in test [1], the Ki is less than 0.3 µM. In addition, in test [2], the inhibition at 50 µM is more than 60%.
